According to paper PMC12259270, “Sensory neuron–expressed FGF13 controls nociceptive signaling in diabetic neuropathy models” (The Journal of Clinical Investigation, 2025):
Entries after “also recorded” stand apart in the source; their conditions may differ. Residues, ends and D or L forms follow the SMILES beside them. *: point of attachment. Cbz = O=C(OCc1ccccc1)*; OtBu = CC(C)(C)O*

Tests used:
human Nav1.6 = biological target: T1, human Nav1.6 (Homo sapiens, UniProt Q9UQD0); test: Whole-cell patch-clamp, HEK293 cells stably expressing human Nav1.6; type: cell-based
T1 construct: expressed in transfected cells; host or cells: HEK293 stably expressing human Nav1.6
T1 sequence (Q9UQD0 whole entry): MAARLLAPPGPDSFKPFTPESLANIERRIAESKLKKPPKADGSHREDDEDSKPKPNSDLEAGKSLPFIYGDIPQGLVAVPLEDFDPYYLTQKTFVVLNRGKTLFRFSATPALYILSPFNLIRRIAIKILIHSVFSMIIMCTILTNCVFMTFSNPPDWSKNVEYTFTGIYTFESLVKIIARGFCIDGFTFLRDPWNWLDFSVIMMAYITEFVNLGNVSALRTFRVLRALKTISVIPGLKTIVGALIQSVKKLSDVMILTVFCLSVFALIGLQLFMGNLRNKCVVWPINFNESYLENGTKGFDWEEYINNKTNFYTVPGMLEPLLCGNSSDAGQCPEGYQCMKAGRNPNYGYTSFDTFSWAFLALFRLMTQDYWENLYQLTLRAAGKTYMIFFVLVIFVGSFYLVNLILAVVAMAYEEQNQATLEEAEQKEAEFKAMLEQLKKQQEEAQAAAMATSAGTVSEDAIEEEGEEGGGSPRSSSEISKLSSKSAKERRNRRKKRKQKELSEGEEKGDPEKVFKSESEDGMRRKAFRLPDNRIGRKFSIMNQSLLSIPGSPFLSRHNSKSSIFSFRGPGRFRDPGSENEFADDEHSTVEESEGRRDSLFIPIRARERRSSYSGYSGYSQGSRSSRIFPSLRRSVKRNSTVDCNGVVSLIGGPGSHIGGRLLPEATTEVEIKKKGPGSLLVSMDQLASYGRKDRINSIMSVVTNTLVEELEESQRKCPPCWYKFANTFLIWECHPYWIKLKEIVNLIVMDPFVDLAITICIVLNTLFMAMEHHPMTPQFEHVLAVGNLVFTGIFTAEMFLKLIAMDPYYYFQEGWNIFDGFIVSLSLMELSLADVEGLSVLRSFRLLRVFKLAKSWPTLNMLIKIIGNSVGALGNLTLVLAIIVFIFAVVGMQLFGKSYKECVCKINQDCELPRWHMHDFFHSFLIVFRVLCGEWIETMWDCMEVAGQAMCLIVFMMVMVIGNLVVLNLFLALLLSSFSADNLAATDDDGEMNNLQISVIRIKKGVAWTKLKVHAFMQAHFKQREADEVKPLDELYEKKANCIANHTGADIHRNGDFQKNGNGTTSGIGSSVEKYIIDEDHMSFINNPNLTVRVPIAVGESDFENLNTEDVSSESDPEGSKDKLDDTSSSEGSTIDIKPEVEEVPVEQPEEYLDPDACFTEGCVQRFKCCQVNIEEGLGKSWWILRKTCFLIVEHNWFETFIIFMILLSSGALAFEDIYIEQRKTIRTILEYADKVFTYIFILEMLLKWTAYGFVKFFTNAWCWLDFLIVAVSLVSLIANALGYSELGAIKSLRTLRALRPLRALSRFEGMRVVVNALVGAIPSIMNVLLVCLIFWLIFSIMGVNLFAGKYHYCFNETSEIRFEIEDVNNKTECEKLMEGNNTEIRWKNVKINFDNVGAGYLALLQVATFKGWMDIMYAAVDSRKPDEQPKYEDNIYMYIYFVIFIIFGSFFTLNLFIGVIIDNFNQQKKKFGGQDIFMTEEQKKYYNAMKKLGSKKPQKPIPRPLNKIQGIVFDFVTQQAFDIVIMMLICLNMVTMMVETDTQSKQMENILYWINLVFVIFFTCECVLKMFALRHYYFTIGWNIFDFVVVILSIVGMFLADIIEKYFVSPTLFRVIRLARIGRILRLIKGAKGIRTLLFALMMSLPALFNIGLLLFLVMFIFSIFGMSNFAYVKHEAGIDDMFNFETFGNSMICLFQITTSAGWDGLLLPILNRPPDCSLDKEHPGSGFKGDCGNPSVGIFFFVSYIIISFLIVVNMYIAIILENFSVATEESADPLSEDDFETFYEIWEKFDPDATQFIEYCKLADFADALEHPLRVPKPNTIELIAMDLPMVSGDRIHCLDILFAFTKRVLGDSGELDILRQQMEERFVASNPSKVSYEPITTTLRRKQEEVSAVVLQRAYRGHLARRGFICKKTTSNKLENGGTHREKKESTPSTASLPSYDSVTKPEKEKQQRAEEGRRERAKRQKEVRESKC
Description: Whole-cell patch clamp electrophysiology
HEK293-Nav1.7 cells, HEK293 stably expressing human Nav1.6 (HEK-Nav1.6), HEK293 stably expressing human Nav1.5 (HEK-Nav1.5), human hIPSC-derived sensory neurons (RealDRGTM from Anatomic Incorporated 1020F1-1M) and donor-derived DRG neurons were plated at low density on glass coverslips and processed for whole-cell patch clamp electrophysiology in voltage-clamp and/or current clamp mode. Whole-cell patch electrophysiological experiments were conducted following previously published studies (26). Current densities were obtained by dividing INa amplitude by membrane capacitance. Current –voltage relationships were generated by plotting current density as a function of the […]. Conductance (G Na) was calculated by the […]
where INa is the current amplitude at voltage Vm, and Erev is the Na+ reversal potential.
Activation curves were derived by plotting normalized GNa as a function of test potential and fitted using […]
Where GNa,Max is the maximum conductance, Va is the membrane potential of half-maximal activation, Em is the membrane voltage and k is the slope factor. For steady -state inactivation, normalized current amplitude (INa/INa,Max) at the test potential was plotted as a function of prepulse potential (Vm) and fitted using the […]
Where Vh is the potential of half-maximal inactivation, E m is the membrane voltage, and k is the slope factor.
Transient INa inactivation decay was estimated with the standard exponential equation. Inactivation time constant (tau, τ) was fitted with the following equation: […]
where I(t) is the amplitude of the current at time t and Iss is the steady-state current during a single voltage-step.
The goodness of fitting was determined by correlation coefficient (R), and the cutoff of R was set at 0.85. To observe effects on long-term inactivation (LTI), a four-step protocol was employed during which cells were subjected to four 0 mV, 20 ms depolarization pulses separated by −90 mV, 40 ms recovery intervals. To control for various cell sizes, the current densities were calculated by dividing INa peak current amplitude/membrane capacitance (Cm). To represent the fraction of channels entering into LTI, the peak INa observed during depolarization cycles 2-4 was normalized to the peak INa observed during depolarization cycle 1 (INa/INa,Cycle 1) and plotted as a function of the depolarization cycle.
The cumulative (frequency-dependent) use-dependency was determined by applying 20 pulses with a depolarization to −10 mV (50 ms duration) and 50 ms recovery intervals with a train of 20 pulses at 10 Hz from a holding potential at -70 mV. The current pulses were normalized to the first reco rded pulse and the currents at the 2nd to 20th pulses were compared. The same train was used to record use-dependency at various frequencies […]
The rate of recovery from inactivation was recorded at -80 mV with a standard repriming voltage protocol.
The cells were prepulsed to -20 mV for 20 ms to inactivate all currents, then driven back to the recovery potential (Vrec) for increasing recovery durations before the test pulse to 0 mV. The maximum pulse rate was 0.5 Hz. The […]
follows previous publications (16). The time constants were estimated from single exponential decay to time courses measured at recovery potentials ranging from -140 to -60 mV with the protocol as mentioned above.
Electrophysiological Recordings
HEK293 cells: Electrophysiological recordings in HEK293 stably expressing Nav1.7 (HEK-Nav1.7), Nav1.5 (HEK-Nav1.5) or Nav1.6 (HEK-Nav1.6) were performed at room temperature using a MultiClamp 700B or an Axopatch 200B amplifier (Molecular Devices) after incubating coverslips for 60 minutes either with 0.1% DMSO or 50 μM PW164 or ZL192 in the extracellular solution. The composition of recording solutions consisted of the […]
following salts: extracellular (mM): 140 NaCl, 3 KCl, 1 MgCl2, 1 CaCl2, 10 HEPES, 10 glucose, pH 7.3; […]
intracellular (mM): 130 CH3O3 SCs, 1 EGTA, 10 NaCl, 10 HEPES, pH 7.3. […]

C57BL/6 mice = test: Capsaicin-induced thermal hypersensitivity (Hargreaves); type: in vivo, mouse
Excerpt: FGF13 is a neuronal gene ubiquitously transcribed in DRG neuronal subtypes ([43]–[46]). To investigate neuronal subtype enrichment of the FGF13 transcript, we examined a gene panel including FGF13, SCN9A, and several marker genes in mouse single-cell transcriptomic data (Supplemental Figure 10) ([43]–[46]). […] Critically, putative silent nociceptors marked by somatostatin (SST), and the nicotinic cholinergic receptor α-3 subunit (CHRNA3) contribute to development of inflammatory mechanical hyperalgesia ([47]). […] We next determined if PW164 modulation of the FGF13/Nav1.7 complex could suppress nociceptive behaviors in WT mice. We tested whether intraplantar (i.pl.) injection (5 μL) of PW164 altered hind paw withdrawal in response to low or high intensity von Frey filament (LVF or HVF, respectively) mechanical stimulation (Figure 3A). […] Next, we evaluated PW164’s effect on mechanical and thermal hindpaw sensitivity in capsaicin-induced nociceptive hypersensitivity models. […] Next, we performed in vivo target validation in WT mice that received an intrathecal (i.t.) injection in L5 of AAV2-shFGF13 (6 μL, viral titers 1 × 10^12 vector genomes (vg)/mL); a control group received an equal number of AAV2-shCTRL particles (Figure 3C).
Experiments were performed on 6- to 12-week-old male C57BL/6 mice (The Jackson Laboratory, Bar Harbor, ME) housed in the AAALAC-accredited facility at the University of Texas Medical Branch. Mice were group-housed with up to 5 mice per cage on a 12-to-12-hour light–dark cycle and had access to water and food ad libitum. All protocols were approved by the Institutional Animal Care and Use Committee (IACUC) at the University of Texas Medical Branch and in accordance with the National Institutes of Health (NIH) guidelines.
PW164 and ZL192 were dissolved in DMSO and saline in a ratio of 1:10. 0.1% capsaicin (10% ethanol, 10% Tween-20 in saline; Sigma-Aldrich). All the compounds were injected at the center of the hind paw. The control group received a DMSO-saline mixture. […]
AAV2 viral particles packaged by the University of North Carolina Gene Therapy Core Facility (viral titer ranging […]
Before intrathecal injections in the lumbar region, mice were maintained in an anesthetizing box with 2% isoflurane to induce unconsciousness. Six microliters of viral vector were gently injected into the CSF through a 30-gauge needle with a Hamilton syringe in the lumbar area between vertebrae L4 and L5 by gently gripping the iliac crest of the mouse and inserting the needle with an angle of 45°. The correct procedure was confirmed by the mouse’s tail reflexiv e flick. […]

[1] = HEK293 Nav1.6, FGF13-1a-GFP + PW164

COC(=O)[C@@H](NC(=O)[C@H](CCC(=O)OC(C)(C)C)NC(=O)[C@H](CC(C)C)NC(=O)[C@@H]1CCCN1C(=O)OCc1ccccc1)C(C)C [PW164] (Cbz-PLE(OtBu)V-OMe)
Activation (human Nav1.6; [1]): −29.2 ± 1.2 mV
Long-term inactivation, 2nd Pulse (human Nav1.6; [1]): −67.4 ± 4.1 % maximal Na+ current
Long-term inactivation, 3rd Pulse (human Nav1.6; [1]): −59.7 ± 4.1 % maximal Na+ current
Long-term inactivation, 4th Pulse (human Nav1.6; [1]): −54.2 ± 4.9 % maximal Na+ current
Peak Density (human Nav1.6; [1]): −102.7 ± 8.8 pA/pF
Steady state inactivation (human Nav1.6; [1]): −50.8 ± 2.1 mV
Tau (τ) (human Nav1.6; [1]): 1.46 ± 0.04 ms
activity on Nav1.6-mediated currents (human Nav1.6; HEK293 stably expressing Nav1.6 alone or coexpressing FGF13): does not modulate; also recorded: inactive
thermal sensitivity in AAV2-shFGF13 mice after capsaicin (C57BL/6 mice; PW164 5 μL, 0.7mg/mL hind paw): did not further modify
capsaicin-induced thermal sensitivity (C57BL/6 mice; PW164 at the capsaicin injection site, 30 minutes post-capsaicin): inhibited
